Test results as given in PubChem BioAssay (NCI).
Several values for one entry are separate records, joined by “and”; a condition that tells them apart may be missing. Equal values may be shown once.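 Step 1: Grow cells in 96-well plates. Step 2: Expose to compound for 48 hours at 5 concentrations. Step 3: Interpolate endpoints linearly; if unreached, use highest concentration. Here, GI50 denotes the concentration required for 50% inhibition of growth. The concentration for full growth arrest is given as TGI.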

How the values were obtained:
Experiment in all cases: DTP human tumour cell line panel, 48 h
HT29 colon = system: HT29 colon
NCI-H23 lung = system: NCI-H23 lung
OVCAR-3 ovarian = system: OVCAR-3 ovarian
SF-539 CNS = system: SF-539 CNS
SK-MEL-2 melanoma = system: SK-MEL-2 melanoma
SNB-19 CNS = system: SNB-19 CNS
UACC-257 melanoma = system: UACC-257 melanoma
UACC-62 melanoma = system: UACC-62 melanoma
UO-31 renal = system: UO-31 renal
MDA-MB-435 = system: MDA-MB-435

C[C@H]1CC[P+](Cc2ccccc2)(c2ccccc2)C1 (some centres undefined)
TGI (HT29 colon): > 100 µM
TGI (NCI-H23 lung): > 100 µM
TGI (OVCAR-3 ovarian): > 100 µM
TGI (SF-539 CNS): > 100 µM
TGI (SK-MEL-2 melanoma): > 100 µM
TGI (SNB-19 CNS): > 100 µM
TGI (UACC-257 melanoma): 80.2 µM
TGI (UACC-62 melanoma): > 100 µM
TGI (UO-31 renal): > 100 µM

COC1=C(N)C(=O)c2nc(-c3nc(C(=O)O)c(C)c(-c4ccc(OC)c(OC)c4O)c3N)ccc2C1=O
TGI (HT29 colon): 0.0337 µM and 0.0342 µM and 0.0663 µM
GI50 (MDA-MB-435): 0.0266 µM and 0.0104 µM
GI50 (OVCAR-3 ovarian): 0.0283 µM and 0.0169 µM
TGI (OVCAR-3 ovarian): 0.0395 µM
TGI (SNB-19 CNS): 0.00354 µM and 0.0228 µM and < 0.011 µM
GI50 (UACC-257 melanoma): 0.00321 µM and 0.0122 µM and 0.0224 µM
GI50 (UACC-62 melanoma): 0.00103 µM and 0.000879 µM and < 0.01 µM
GI50 (UO-31 renal): < 0.01 µM
TGI (UO-31 renal): 0.02 µM and 0.0176 µM

COc1ccc(-c2cc(=O)c3c(O)c(OC)c(OC)c(OC)c3o2)cc1OC
TGI (HT29 colon): > 100 µM
TGI (NCI-H23 lung): > 100 µM
TGI (OVCAR-3 ovarian): > 100 µM
TGI (SF-539 CNS): > 100 µM
TGI (SK-MEL-2 melanoma): > 100 µM
TGI (SNB-19 CNS): > 100 µM
TGI (UACC-257 melanoma): > 100 µM
TGI (UACC-62 melanoma): > 100 µM
TGI (UO-31 renal): > 100 µM

COC(=O)C(=O)Cc1nc2ccccc2s1
TGI (HT29 colon): > 100 µM
TGI (NCI-H23 lung): > 100 µM
TGI (OVCAR-3 ovarian): > 100 µM
TGI (SF-539 CNS): > 100 µM
TGI (SK-MEL-2 melanoma): > 100 µM
TGI (SNB-19 CNS): > 100 µM
TGI (UACC-257 melanoma): > 100 µM
TGI (UACC-62 melanoma): > 100 µM
TGI (UO-31 renal): > 100 µM

O=C1C(c2ccccc2)=C(c2ccccc2)C(c2ccc(Cc3ccc(C4=C(c5ccccc5)C(=O)C(c5ccccc5)=C4c4ccccc4)cc3)cc2)=C1c1ccccc1
TGI (HT29 colon): > 100 µM
TGI (NCI-H23 lung): > 100 µM
TGI (OVCAR-3 ovarian): > 100 µM
TGI (SF-539 CNS): > 100 µM
TGI (SK-MEL-2 melanoma): > 100 µM
TGI (SNB-19 CNS): > 100 µM
TGI (UACC-257 melanoma): > 100 µM
TGI (UACC-62 melanoma): > 100 µM
TGI (UO-31 renal): > 100 µM

Cc1nc(N)nc(N)c1CCCCc1ccc(N)cc1
TGI (HT29 colon): 15.1 µM
TGI (NCI-H23 lung): 15.8 µM
TGI (OVCAR-3 ovarian): 20.9 µM
TGI (SF-539 CNS): 21.7 µM
TGI (SK-MEL-2 melanoma): 21.3 µM
TGI (SNB-19 CNS): 20.4 µM
TGI (UACC-257 melanoma): 18.5 µM
TGI (UACC-62 melanoma): 14.1 µM
TGI (UO-31 renal): > 100 µM

CCOC(=O)CSc1cc(Cl)c(C)cc1S(=O)(=O)/N=C(/N=C/c1ccc([N+](=O)[O-])s1)NNC
GI50 (HT29 colon): 15 µM
TGI (HT29 colon): 28.2 µM
GI50 (MDA-MB-435): 16.3 µM
TGI (MDA-MB-435): 37.6 µM
GI50 (NCI-H23 lung): 14.5 µM
TGI (NCI-H23 lung): 37.2 µM
GI50 (OVCAR-3 ovarian): 10.3 µM
TGI (OVCAR-3 ovarian): 24.7 µM
GI50 (SK-MEL-2 melanoma): 31 µM
TGI (SK-MEL-2 melanoma): 59.1 µM
GI50 (SNB-19 CNS): 22.8 µM
TGI (SNB-19 CNS): 80.1 µM
GI50 (UACC-257 melanoma): 28.7 µM
TGI (UACC-257 melanoma): 67.2 µM
GI50 (UACC-62 melanoma): 14.1 µM
TGI (UACC-62 melanoma): 30.8 µM
GI50 (UO-31 renal): 36.6 µM
TGI (UO-31 renal): > 100 µM

Nc1ccc2n[se]nc2c1
TGI (HT29 colon): > 100 µM
TGI (NCI-H23 lung): > 100 µM
TGI (SF-539 CNS): > 100 µM
TGI (SK-MEL-2 melanoma): > 100 µM
TGI (SNB-19 CNS): > 100 µM
TGI (UACC-257 melanoma): > 100 µM
TGI (UACC-62 melanoma): > 100 µM
TGI (UO-31 renal): > 100 µM

CSC1=NC(=Nc2c(C)cccc2C)C2(CCC(C(C)(C)C)CC2)N1c1ccc(Cl)cc1 (centres undefined)
GI50 (HT29 colon): 38 µM
TGI (HT29 colon): > 100 µM
GI50 (MDA-MB-435): 30.9 µM
TGI (MDA-MB-435): > 100 µM
GI50 (NCI-H23 lung): 24.7 µM
TGI (NCI-H23 lung): > 100 µM
GI50 (OVCAR-3 ovarian): 54.1 µM
TGI (OVCAR-3 ovarian): > 100 µM
GI50 (SF-539 CNS): 71.7 µM
TGI (SF-539 CNS): > 100 µM
GI50 (SK-MEL-2 melanoma): > 100 µM
TGI (SK-MEL-2 melanoma): > 100 µM
GI50 (SNB-19 CNS): > 100 µM
TGI (SNB-19 CNS): > 100 µM
GI50 (UACC-62 melanoma): 45.3 µM
TGI (UACC-62 melanoma): > 100 µM
GI50 (UO-31 renal): 25.2 µM
TGI (UO-31 renal): > 100 µM

CC(C)(CN1C(=O)C(Cl)=C(Cl)C1=O)CN1C(=O)C(Cl)=C(Cl)C1=O
TGI (HT29 colon): 42 µM
TGI (NCI-H23 lung): 21 µM
TGI (OVCAR-3 ovarian): 23.2 µM
TGI (SF-539 CNS): 38.8 µM
TGI (SK-MEL-2 melanoma): 41 µM
TGI (SNB-19 CNS): 55 µM
TGI (UACC-257 melanoma): 29 µM
TGI (UACC-62 melanoma): 29.5 µM
TGI (UO-31 renal): 47.2 µM

Nc1nncc2c1c(Br)cn2C1OC(CO)C(O)C1O (centres undefined)
TGI (HT29 colon): > 100 µM
TGI (NCI-H23 lung): > 67.6 µM
TGI (OVCAR-3 ovarian): > 100 µM
TGI (SF-539 CNS): > 100 µM
TGI (SK-MEL-2 melanoma): > 60.9 µM
TGI (SNB-19 CNS): > 100 µM
TGI (UACC-257 melanoma): > 100 µM
TGI (UACC-62 melanoma): > 100 µM
TGI (UO-31 renal): > 100 µM

O=S1(=O)N2CN3CN(C2)CN1C3
TGI (HT29 colon): 90.6 µM
TGI (NCI-H23 lung): 44.3 µM
TGI (SK-MEL-2 melanoma): 473 µM
TGI (SNB-19 CNS): 856 µM
TGI (UACC-257 melanoma): 94.3 µM
TGI (UACC-62 melanoma): 49.2 µM
TGI (UO-31 renal): 410 µM

CCOC(=O)C(C)(NC(=O)c1ccc(NCc2ccc3nc(NC(=O)c4ccccc4)nc(NC(=O)c4ccccc4)c3c2)cc1)C(=O)OCC
TGI (HT29 colon): 39.1 µM
TGI (NCI-H23 lung): 27.5 µM
TGI (OVCAR-3 ovarian): 22.1 µM
TGI (SF-539 CNS): 9.88 µM
TGI (SK-MEL-2 melanoma): 34.7 µM
TGI (UACC-257 melanoma): 36.4 µM
TGI (UACC-62 melanoma): 22.1 µM
TGI (UO-31 renal): 34.9 µM

COC1C2C[C@@H](O)CCC2C(C(=O)OCCl)C[C@H]1O (some centres undefined)
TGI (OVCAR-3 ovarian): > 100 µM
TGI (SF-539 CNS): > 100 µM
TGI (SK-MEL-2 melanoma): > 100 µM
TGI (SNB-19 CNS): > 100 µM
TGI (UACC-257 melanoma): > 100 µM
TGI (UACC-62 melanoma): > 100 µM
TGI (UO-31 renal): > 100 µM

O=C1c2ccccc2C(=O)c2cc3c(cc21)CS(=O)C3
TGI (HT29 colon): > 100 µM
TGI (NCI-H23 lung): > 100 µM
TGI (OVCAR-3 ovarian): > 100 µM
TGI (SF-539 CNS): > 100 µM
TGI (SK-MEL-2 melanoma): > 100 µM
TGI (SNB-19 CNS): > 100 µM
TGI (UACC-257 melanoma): > 100 µM
TGI (UACC-62 melanoma): > 100 µM
TGI (UO-31 renal): > 100 µM

O=[N+]([O-])c1ccc(C2=Nc3ccccc3S(=O)C(c3ccccc3)C2)cc1 (centres undefined)
TGI (HT29 colon): 42 µM
TGI (NCI-H23 lung): 36.3 µM
TGI (OVCAR-3 ovarian): 37.3 µM
TGI (SF-539 CNS): 45 µM
TGI (SK-MEL-2 melanoma): > 100 µM
TGI (SNB-19 CNS): 68 µM
TGI (UACC-257 melanoma): 55.3 µM
TGI (UACC-62 melanoma): 29.9 µM
TGI (UO-31 renal): 32.2 µM

COc1cccc2c1-c1nc(N)c3c(OC)cccc3c1C2=O
TGI (HT29 colon): > 100 µM
TGI (MDA-MB-435): > 100 µM
TGI (NCI-H23 lung): > 100 µM
TGI (OVCAR-3 ovarian): > 100 µM
TGI (SF-539 CNS): > 100 µM
TGI (SK-MEL-2 melanoma): > 100 µM
TGI (UACC-257 melanoma): > 100 µM
TGI (UACC-62 melanoma): > 100 µM
TGI (UO-31 renal): > 100 µM

CC(=O)C1CCN(c2ccccc2)C1 (centres undefined)
TGI (HT29 colon): > 100 µM
TGI (NCI-H23 lung): > 100 µM
TGI (OVCAR-3 ovarian): > 100 µM
TGI (SF-539 CNS): > 100 µM
TGI (SK-MEL-2 melanoma): > 100 µM
TGI (SNB-19 CNS): > 100 µM
TGI (UACC-257 melanoma): > 100 µM
TGI (UACC-62 melanoma): > 100 µM
TGI (UO-31 renal): > 100 µM

O=C(O/N=C1\CCCC\C1=C/c1ccccc1)c1ccc([N+](=O)[O-])cc1
TGI (HT29 colon): > 100 µM
TGI (NCI-H23 lung): > 100 µM
TGI (OVCAR-3 ovarian): > 100 µM
TGI (SF-539 CNS): > 100 µM
TGI (SK-MEL-2 melanoma): > 100 µM
TGI (UACC-62 melanoma): > 100 µM
TGI (UO-31 renal): > 100 µM

COc1cc([N+](=O)[O-])c(OC)cc1-c1nc2sc(C)c(C)n2c1/C(N)=N/C(=N)N
GI50 (HT29 colon): > 100 µM
TGI (HT29 colon): > 100 µM
GI50 (MDA-MB-435): > 100 µM
TGI (MDA-MB-435): > 100 µM
GI50 (NCI-H23 lung): > 100 µM
TGI (NCI-H23 lung): > 100 µM
GI50 (SNB-19 CNS): 2.33 µM
TGI (SNB-19 CNS): > 100 µM
GI50 (UACC-257 melanoma): 1.02 µM
TGI (UACC-257 melanoma): > 100 µM
GI50 (UO-31 renal): > 100 µM
TGI (UO-31 renal): > 100 µM

CN=c1ss/c(=N\C(=S)N(C)C)n1C
TGI (HT29 colon): > 100 µM
TGI (NCI-H23 lung): > 100 µM
TGI (SF-539 CNS): > 100 µM
TGI (SK-MEL-2 melanoma): > 100 µM
TGI (SNB-19 CNS): > 100 µM
TGI (UACC-257 melanoma): > 100 µM
TGI (UACC-62 melanoma): > 100 µM
TGI (UO-31 renal): > 100 µM

O=C(c1ccc(O)cc1O)C1C(c2ccc(O)cc2)OC(c2ccc(O)cc2)C1C(=O)c1ccc(O)cc1O (centres undefined)
TGI (HT29 colon): > 100 µM
TGI (NCI-H23 lung): 74.2 µM
TGI (OVCAR-3 ovarian): 40 µM
TGI (SF-539 CNS): 47.1 µM
TGI (SK-MEL-2 melanoma): 40.3 µM
TGI (SNB-19 CNS): 45.2 µM
TGI (UACC-257 melanoma): 39.7 µM
TGI (UO-31 renal): 76.9 µM
